Data as given in publication PMC12491701, “Discovery of an APP-selective BACE1 inhibitor for Alzheimer's disease” (Neurotherapeutics, 2025).
Like-named read-outs stand apart in the source and are kept apart here.

Tests used:
[1] = Efficacy testing in B254 mice; format: in vivo, mouse; conditions: both sexes, B254, mouse, brain, oral, 30 mg/kg BID, read-out: mean brain level of compound
Source text: (§1) B254 mice are an AD model comprising expression of human APP with Swedish and Indiana mutations along with a D664A substitution and endogenous murine tau, as described in Galvan et al.. In our in vivo studies, we detected impairment in learning and memory in B254 D664A mice at 5–6 months of age (end of chronic treatment) in the novel location and novel object spatial memory testing paradigms. We note that previous studies have reported conflicting findings for such impairments when using in the Morris Water Maze. […] In a later study performed by a different group, it was reported that at both 2–3 or 5–7 months of age B254 and J20 mice had similar abnormalities relative to non-transgenic mice in spatial and nonspatial learning and memory. Our findings were in alignment with the latter studies.
(§2) Male and female 4-5 month-old B254 mice in the subchronic and chronic treatment were administered FAH65 via pipette feeding by the method of Atcha et al. at a dose of 30 mg/kg BID (60 mg/kg/day). Mice were weighed before the first dose for the calculation of volume to be administered. The formulation used comprised FAH65 hydrochloride as a 40 mg/mL solution in water plus 30 mg/mL in strawberry syrup.
(§3) In the pilot subchronic study, mice were treated for 10 days, and in the follow-up study, for 26 days. One week before the end of the study, mice in the pilot study underwent Novel Object Recognition (NOR) memory testing, and mice in the follow-up chronic study underwent both NOR and Novel Location Recognition (NLR) testing as described elsewhere. Briefly, mice are introduced to two identical, parallel and evenly objects in an opaque 30 × 40 cm arena (box without a lid) with navigation marks on the wall, for 10 min. For Novel Location Recognition (NLR), after a 2.5-h interval, the mouse is returned to the arena wherein one identical object has been moved diagonally. The time spent and number of discreet interactions with the objects in the original location and in the new location over 10 min is recorded. The mouse is then removed from the arena, and after an additional 2.5-h interval, for the Novel Object Recognition (NOR) phase, is returned to the arena wherein the objects are in the original position, but one is a new, different object. The time spent and number of discreet interactions with the objects in the original location and in the new location over 10 min is recorded. The novelty preference was calculated by […].
(§4) For in vivo studies, Individual tissues were weighed and sonicated on ice with AlphaLISA Lysis Buffer complemented with HALT (Fisher catalog # 78446) to give a 10 % W/V sonicate. Total protein concentration was assessed by BCA assay (Fisher catalog # 23227) following manufacturer recommendations.
(§5) For the ELISA assay to assess sAPPβ levels in brain an IBL ELISA (kit #27733) specific for sAPPβ with the Swedish (K595 N/M596L) mutation that is present in the APP transgene of the mouse model used following the kit instructions. Briefly, 499 μL of EIA buffer was added to individual tubes for each sample, 1 μL of sample added, vortexed and centrifuged. To each assay plate well, 100 μL of sample was added, and the covered plate incubated overnight at 4 °C. The plate(s) was washed 4 times with 350 μL/well wash buffer, then 100 μL/well of labeled antibody added followed by incubation for 30 min at 4 °C. After five washes, 100 μL chromogen solution was added to each well and incubated for 30 min at RT in the dark. Stop solution (100 μL/well) was then added and the plate read at 450 nm. […]

[2] = tested on: B254 mice; experiment: Efficacy testing in B254 mice; format: in vivo, mouse
Source text: as §1, §2, §3, §4, §5

[3] = chronic study, oral 30 mkd, 26 days

Cc1cc(C2(c3cccc(-c4cncnc4)c3)N=C(N)N(C)C2=O)ccc1OC(F)F (stereo not shown) [FAH65]
concentration at 2 h ([1]; chronic, 2 h after last day dosing): ~50 ng/g
concentration at 2 h ([1]; subchronic, 2 h after the last dose): ~20 ng/g
novelty preference in NOR vs. vehicle [2, 3]: significant increase
novelty preference in Novel Location Recognition (NLR) vs. vehicle [2, 3]: significant increase
brain level of Aβ1-42 vs. vehicle ([2]; chronic, 26 days): not significantly different
brain level of sAPPβ vs. vehicle ([2]; chronic, 26 days): not significantly different
sAPPα in brain tissue vs. vehicle ([2]; chronic, 26 days): significantly higher
sAPPβ/sAPPα ratio in brain tissue vs. vehicle ([2]; chronic, 26 days): significantly lower
Novel Object Recognition (NOR) performance vs. vehicle ([2]; pilot subchronic study, oral 30 mkd, 10 days): not significantly increased
GFAP, IP-10, Aβ1-38, Aβ1-40, Aβ1-42 and Aβ1-42/1-40 ratio in brain (MSD) vs. vehicle ([2]; subchronic study): no significant differences
APP β-CTF in brain tissue vs. vehicle ([2]; subchronic, 10 days): significant decrease
Aβ 1-42 in brain vs. vehicle ([2]; subchronic, 10 days): not significant
p-tau/t-tau ratio in brain vs. vehicle ([2]; subchronic, 10 days): not significant
